# pIC50: −log10 of the molar value.
# Experiments:
# WDR5 = WDR5 (Homo sapiens, UniProt P61964); experiment: WDR5 HTRF binding assay; conditions: read-out: (a) WDR5 HTRF Pep Val v.1[Inhibitor/IC50]Qualified AC50
# Method in brief: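 In this HTRF displacement format, biotinylated MLL1 WIN peptide (3762-3773, 20 nM) binds WDR5 (6 nM) in 25 mM Hepes pH 7.5 with 100 mM NaCl, 2 mM DTT and 0.1% BSA for 20 min at rt. Detection used streptavidin-APC/anti-His-Eu for 1 hr. IC50 came from dose-response fits of normalized signal; 15 nM biotin-PEG-His peptide served as counter assay.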
# [1] = target: wild type MLL1 four-member complex (MLL1-4C) (Homo sapiens, UniProt P61964); experiment: MLL1 LC-MS assay (SAH production); type: biochemical; conditions: read-out: (b) MLL LCMS Peptide Val.v.1 Qualified AC50
# Method in brief: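 SAH formation, measured by LC-MS/MS after a TFA quench containing d4-SAH, was normalised to no-compound and no-enzyme controls and fitted to a dose-response curve for IC50. Reactions ran 120 min at rt (pH 8.0 Tris buffer) with final 30 nM MLL1 four-member complex, 2.5 μM SAM and 10 μM biotinylated H3[1-21] peptide, after a 20-min enzyme/SAM-compound preincubation.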
# MV4-11 cells = experiment: MV4-11 6-day cell growth CTG (CellTiter-Glo) assay; type: cell-based; conditions: Homo sapiens, MV4-11, 144 h, 6 days, read-out: (c) MLL/WDR5 cell proliferation assay//MLL/WDR5 proliferation MV4:11 Qualified AC50
# Method in brief: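 IC50 comes from a dose-response fit of % inhibition relative to DMSO controls, with viable cells measured by CellTiter-Glo luminescence. Compounds were tested over 12 points (1:3, starting at 50 μM final) on MV4-11 cells plated at 300/well and grown 6 days.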
Structure (SMILES),pIC50 (WDR5),AC50 [1],AC50 (MV4-11 cells)
CCOc1cc([C@H](C)N2CCc3c(cc(CCN(C)C4CC4)cc3-c3ccc(F)nc3C)C2=O)ncc1C#N [Example 229],> 8.00,0.01 to 1 µM,0.01 to 1 µM
CCOc1cc(C(C)N2CCc3c(cc(CCN(C)C4COC4)cc3-c3ccc(F)nc3C)C2=O)ncc1C#N (stereo not drawn) [Example 231],> 8.00,0.01 to 1 µM,0.01 to 1 µM
CCOc1cc([C@H](C)N2CCc3c(cc(CCN(C)CCOC)cc3-c3cc(C)ncc3C)C2=O)ncc1C#N [Example 232],> 8.00,0.01 to 1 µM,0.01 to 1 µM
CCOc1cc([C@H](C)N2CCc3c(cc(CCN(C)CCOC)cc3-c3ccc(F)nc3C)C2=O)ncc1C#N [Example 234],> 8.00,0.01 to 1 µM,0.01 to 1 µM
CCOc1cc([C@H](C)N2CCc3c(cc(CCN4CC[C@H]4C)cc3-c3ccc(F)nc3C)C2=O)ncc1C#N [Example 235],> 8.00,0.01 to 1 µM,0.01 to 1 µM
CCOc1cc(C(C)N2CCc3c(cc(CCN(C)CCF)cc3-c3ccc(F)nc3C)C2=O)ncc1C#N (stereo not drawn) [Example 236],> 8.00,0.01 to 1 µM,0.01 to 1 µM
CCOc1cc(C(C)N2CCc3c(cc(CCN(C)CCF)cc3-c3cn(C)nc3C)C2=O)ncc1C#N (stereo not drawn) [Example 241],6.00 to 8.00,0.01 to 1 µM,0.01 to 1 µM
CCOc1cc([C@H](C)N2CCc3c(cc(CCN(C)CC(C)O)cc3-c3ccc(F)nc3C)C2=O)ncc1C#N (stereo partly drawn) [Example 242],6.00 to 8.00,0.01 to 1 µM,0.01 to 1 µM
CCOc1cc([C@H](C)N2CCc3c(cc(CCN4CC[C@H]4CO)cc3-c3ccc(F)nc3C)C2=O)ncc1C#N [Example 243],6.00 to 8.00,0.01 to 1 µM,0.01 to 1 µM
CCOc1cc([C@H](C)N2CCc3c(cc(CCN(C)CC(C)O)cc3-c3cc(C)cnc3C)C2=O)ncc1C#N (stereo partly drawn) [Example 246],6.00 to 8.00,0.01 to 1 µM,0.01 to 1 µM
CCOc1cc([C@H](C)N2CCc3c(cc(CCN(C)CCF)cc3-c3ccc(F)nc3C)C2=O)ncc1C#N [Example 247],6.00 to 8.00,0.01 to 1 µM,0.01 to 1 µM
CCOc1cc(C(C)N2CCc3c(cc(CCN(C)CCF)cc3-c3cc(C)ncc3C)C2=O)ncc1C#N (stereo not drawn) [Example 248],6.00 to 8.00,0.01 to 1 µM,0.01 to 1 µM
CCOc1cc([C@H](C)N2CCc3c(cc(CCN(C)CCO)cc3-c3cc(C)ncc3C)C2=O)ncc1C#N [Example 250],6.00 to 8.00,0.01 to 1 µM,0.01 to 1 µM
CCOc1cc([C@H](C)N2CCc3c(cc(CCN(C)CCO)cc3-c3ccc(F)nc3C)C2=O)ncc1C#N [Example 252],6.00 to 8.00,0.01 to 1 µM,0.01 to 1 µM
CCOc1cc([C@H](C)N2CCc3c(cc(CCN(C)C4COC4)cc3-c3ccc(F)nc3C)C2=O)ncc1C#N [Example 253],6.00 to 8.00,0.01 to 1 µM,0.01 to 1 µM
CCOc1cc([C@H](C)N2CCc3c(cc(CCN(C)CCF)cc3-c3cc(C)ncc3C)C2=O)ncc1C#N [Example 254],6.00 to 8.00,0.01 to 1 µM,0.01 to 1 µM
COc1cc(CN2CCc3c(cc(CCN(C)C)cc3-c3cn(C)nc3C(F)(F)F)C2=O)ccc1F [Example 255],6.00 to 8.00,0.01 to 1 µM,1 to 25 µM
"CCOc1cc([C@H](C)N2CCc3c(cc(CCN(C)CC)cc3C(O)C(C)C)C2=O)ncc1C#N (stereo partly drawn) [Example 256, 4-ethoxy-6-((1S)-1-(7-(2-(ethyl(methyl)amino)ethyl)-5-(1-hydroxy-2-methylpropyl)-1-oxo-3,4-dihydroisoquinolin-2(1H)-yl)ethyl)nicotinonitrile]",6.00 to 8.00,0.01 to 1 µM,0.01 to 1 µM
"CCOc1cc(C(C)N2CCc3c(cc(CCN(C)CC)cc3C(O)C(C)C(F)(F)F)C2=O)ncc1C#N (stereo not drawn) [Example 258, 4-ethoxy-6-(1-(7-(2-(ethyl(methyl)amino)ethyl)-1-oxo-5-(3,3,3-trifluoro-1-hydroxy-2-methylpropyl)-3,4-dihydroisoquinolin-2(1H)-yl)ethyl)nicotinonitrile]",> 8.00,0.01 to 1 µM,0.01 to 1 µM
"CCOc1cc(C(C)N2CCc3c(cc(CCN(C)CC)cc3C(O)C(F)(F)F)C2=O)ncc1C#N (stereo not drawn) [Example 259, 4-ethoxy-6-(1-(7-(2-(ethyl(methyl)amino)ethyl)-1-oxo-5-(2,2,2-trifluoro-1-hydroxyethyl)-3,4-dihydroisoquinolin-2(1H)-yl)ethyl)nicotinonitrile]",> 8.00,0.01 to 1 µM,0.01 to 1 µM

# Now from value to molecule, other results behind:
pIC50 (WDR5),AC50 [1],Structure (SMILES),AC50 (MV4-11 cells)
6.00 to 8.00,0.01 to 1 µM,CCOc1cc(CN2CCc3c(cc(CCN4C[C@@H](O)[C@H]4C)cc3-c3cn(C)c(=O)cc3C(F)(F)F)C2=O)ncc1C#N [Example 224],0.01 to 1 µM
> 8.00,0.01 to 1 µM,"CCOc1cc([C@H](C)N2CCc3c(cc(CCN4CC[C@@H](O)[C@H]4C)cc3-c3ccc(F)nc3C)C2=O)ncc1C#N [Example 225, 4-ethoxy-6-((S)-1-(5-(6-fluoro-2-methylpyridin-3-yl)-7-(2-((2R, 3R)-3-hydroxy-2-methylpyrrolidin-1-yl)ethyl)-1-oxo-3,4-dihydroisoquinolin-2(1H)-yl)ethyl)nicotinonitrile]",0.01 to 1 µM
> 8.00,0.01 to 1 µM,CCOc1cc([C@H](C)N2CCc3c(cc(CCN4C[C@@H](O)C[C@H]4C)cc3-c3ccc(F)nc3C)C2=O)ncc1C#N [Example 226],0.01 to 1 µM
6.00 to 8.00,0.01 to 1 µM,CCOc1cc([C@H](C)N2CCc3c(cc(CCN4C[C@@H](O)C[C@@H]4C)cc3-c3ccc(F)nc3C)C2=O)ncc1C#N [Example 227],1 to 25 µM
> 8.00,0.01 to 1 µM,"CCOc1cc([C@H](C)N2CCc3c(cc(CCN(C)CCO)cc3-c3cc(F)cnc3C(F)(F)F)C2=O)ncc1C#N [Example 228, (S)-4-ethoxy-6-(1-(5-(5-fluoro-2-(trifluoromethyl)pyridin-3-yl)-7-(2-((2-hydroxyethyl)(methyl)amino)ethyl)-1-oxo-3,4-dihydroisoquinolin-2(1H)-yl)ethyl)nicotinonitrile]",0.01 to 1 µM
> 8.00,0.01 to 1 µM,CCOc1cc([C@H](C)N2CCc3c(cc(CCN(C)CCO)cc3-c3cc(N)cnc3C(F)(F)F)C2=O)ncc1C#N [Example 230],0.01 to 1 µM
> 8.00,0.01 to 1 µM,CCOc1cc(C(C)N2CCc3c(cc(CCN(C)CCOC)cc3-c3cn(C)c(=O)cc3Cl)C2=O)ncc1C#N (stereo not drawn) [Example 233],0.01 to 1 µM
> 8.00,0.01 to 1 µM,CCOc1cc(C(C)N2CCc3c(cc(CCN(C)CCF)cc3-c3cn(C)c(=O)cc3Cl)C2=O)ncc1C#N (stereo not drawn) [Example 237],0.01 to 1 µM
> 8.00,0.01 to 1 µM,CCOc1cc([C@H](C)N2CCc3c(cc(CCN(C)CCO)cc3-c3cn(C)c(=O)cc3Cl)C2=O)ncc1C#N [Example 238],0.01 to 1 µM
> 8.00,0.01 to 1 µM,CCOc1cc([C@H](C)N2CCc3c(cc(CCN(C)CC(C)O)cc3-c3cn(C)c(=O)cc3Cl)C2=O)ncc1C#N (stereo partly drawn) [Example 239],0.01 to 1 µM
> 8.00,0.01 to 1 µM,CCOc1cc([C@H](C)N2CCc3c(cc(CCN(C)CCOC)cc3-c3cn(C)c(=O)cc3Cl)C2=O)ncc1C#N [Example 240],0.01 to 1 µM
6.00 to 8.00,0.01 to 1 µM,CCOc1cc([C@H](C)N2CCc3c(cc(CCN4C[C@@H](OC)[C@H]4C)cc3-c3ccc(F)nc3C)C2=O)ncc1C#N [Example 244],0.01 to 1 µM
6.00 to 8.00,0.01 to 1 µM,CCOc1cc(CN2CCc3c(cc(CCN4CC[C@H]4C)cc3-c3ccc(F)nc3C)C2=O)ncc1C#N [Example 245],0.01 to 1 µM
6.00 to 8.00,0.01 to 1 µM,CCOc1cc([C@H](C)N2CCc3c(cc(CCN4CC(F)C4)cc3-c3cn(C)c(=O)cc3C(F)(F)F)C2=O)ncc1C#N [Example 249],0.01 to 1 µM
6.00 to 8.00,0.01 to 1 µM,CCOc1cc([C@H](C)N2CCc3c(cc(CCN(C)CCF)cc3-c3cn(C)c(=O)cc3Cl)C2=O)ncc1C#N [Example 251],0.01 to 1 µM
6.00 to 8.00,0.01 to 1 µM,"CCOc1cc(CN2CCc3c(cc(Cn4ccnc4C)cc3-c3cn(C)nc3C)C2=O)ncc1C#N [Example 263, 6-((5-(1,3-Dimethyl-1H-pyrazol-4-yl)-7-((2-methyl-1H-imidazol-1-yl)methyl)-1-oxo-3,4-dihydroisoquinolin-2(1H)-yl)methyl)-4-ethoxynicotinonitrile]",0.01 to 1 µM
> 8.00,0.01 to 1 µM,"CCOc1cc([C@H](C)N2CCc3c(cc(Cn4ccnc4C)cc3-c3c[nH]c(=O)cc3C(F)(F)F)C2=O)ncc1C#N [Example 269, (S)-4-Ethoxy-6-(1-(7-((2-methyl-1H-imidazol-1-yl)methyl)-1-oxo-5-(6-oxo-4-(trifluoromethyl)-1,6-dihydropyridin-3-yl)-3,4-dihydroisoquinolin-2(1H)-yl)ethyl)nicotinonitrile]",0.01 to 1 µM

# Reference: patent US20220289732A1, “HETEROCYCLIC WDR5 INHIBITORS AS ANTI-CANCER COMPOUNDS” (NOVARTIS AG, priority 2019, published 2022)
